In paper PMC4956214, “Identification of Host Insulin Binding Sites on Schistosoma japonicum Insulin Receptors” (PLoS ONE, 2016):

Each sequence was assayed against T1, human insulin (Homo sapiens, UniProt P01308) (assay: Octet RED insulin binding assay (biotinylated human insulin on streptavidin biosensors)). Conditions: Octet RED binding assays.
T1 construct: human insulin was biotinylated using a NHS-PEO4-biotin kit; biotin (chemical label, NHS-PEO4-biotin)
T1 sequence (P01308 25-54 limits assumed): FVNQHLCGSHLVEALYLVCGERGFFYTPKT
T1 sequence (P01308 90-110 limits assumed): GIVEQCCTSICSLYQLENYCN

Q: With “IGIDESESIIETIC [Analogue 7, peptide analogue from SjIR-1 FnIII-1]” as the sequence, how does the “Specific binding to human insulin” value read?
A: no specific binding

Q: “ILPVIVDEVVSLKSDTVG [Analogue 18, peptide analogue from SjIR-2 FnIII-2]” was tested. Which “Specific binding to human insulin” value did it give?
A: no specific binding

Q: For “HEPKCHKVIEPITN [Analogue 8, peptide analogue from SjIR-1 FnIII-1]”, which “Specific binding to human insulin” value is on record?
A: no specific binding

Q: With “IPRDASLPFLKEVTGSLLVYDTEGPEDL [Analogue 14, peptide analogue from SjIR-2 L1]” as the sequence, how does the “Specific binding to human insulin” value read?
A: no specific binding

Q: “GSLIIENGNCSGDLSTLLPNLTVIRNQVI [Analogue 2, peptide analogue from SjIR-1 L1 domain]” was tested. Which “Specific binding to human insulin” value did it give?
A: no specific binding

Q: Which “Specific binding to human insulin” value does the source give for “AYLIWIRILEDNPSEY [Analogue 16, peptide analogue from SjIR-2 FnIII-1]” here?
A: no specific binding
